# Measurements as given in ChEMBL document CHEMBL1201862, “PubChem BioAssay data set” (2004).
# Activity calls are given as the source filed them.
# Legend:
# [1] = molecular target: T1, Corticotropin-releasing factor receptor 2/Corticotropin-releasing factor-binding protein (Homo sapiens, UniProt P24387+Q13324); experiment: Dose Response confirmation of uHTS hits for small molecule antagonists of the CRF-binding protein and CRF-R2 receptor complex.; type: functional; conditions: read-out: IC50_Mean
# T1 sequence (Q13324 whole entry): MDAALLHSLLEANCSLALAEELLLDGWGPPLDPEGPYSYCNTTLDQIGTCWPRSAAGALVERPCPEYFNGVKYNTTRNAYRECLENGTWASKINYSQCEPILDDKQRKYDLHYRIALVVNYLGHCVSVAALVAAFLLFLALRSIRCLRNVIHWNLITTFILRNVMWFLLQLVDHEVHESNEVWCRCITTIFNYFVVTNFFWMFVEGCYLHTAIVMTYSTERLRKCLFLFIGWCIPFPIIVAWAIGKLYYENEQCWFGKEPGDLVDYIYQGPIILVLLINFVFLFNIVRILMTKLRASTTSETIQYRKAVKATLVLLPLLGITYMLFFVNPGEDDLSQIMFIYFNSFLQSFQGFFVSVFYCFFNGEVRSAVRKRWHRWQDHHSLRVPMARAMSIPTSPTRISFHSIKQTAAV
# T1 sequence (P24387 whole entry): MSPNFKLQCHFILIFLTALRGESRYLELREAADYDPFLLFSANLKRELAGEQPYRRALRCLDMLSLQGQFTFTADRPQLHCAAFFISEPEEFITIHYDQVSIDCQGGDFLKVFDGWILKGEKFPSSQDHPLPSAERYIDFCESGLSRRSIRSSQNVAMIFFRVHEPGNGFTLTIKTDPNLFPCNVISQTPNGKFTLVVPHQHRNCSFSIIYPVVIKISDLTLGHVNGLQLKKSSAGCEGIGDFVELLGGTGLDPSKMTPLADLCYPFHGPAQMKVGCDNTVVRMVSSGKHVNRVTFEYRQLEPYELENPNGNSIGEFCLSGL
# [2] = molecular target: T1, Corticotropin-releasing factor receptor 2/Corticotropin-releasing factor-binding protein; experiment: activators of CRF receptor 2 with binding protein – uHTS hits, confirmation (AID 602473); type: functional; conditions: read-out: EC50_Mean
# [3] = molecular target: T2, Replicative DNA helicase DnaB (Mycobacterium tuberculosis, UniProt P9WMR3); experiment: DnaB intein splicing inhibitors, dose response, biochemical, cell-free fluorescence (AID 449749); type: functional
# T2 sequence (P9WMR3 whole entry): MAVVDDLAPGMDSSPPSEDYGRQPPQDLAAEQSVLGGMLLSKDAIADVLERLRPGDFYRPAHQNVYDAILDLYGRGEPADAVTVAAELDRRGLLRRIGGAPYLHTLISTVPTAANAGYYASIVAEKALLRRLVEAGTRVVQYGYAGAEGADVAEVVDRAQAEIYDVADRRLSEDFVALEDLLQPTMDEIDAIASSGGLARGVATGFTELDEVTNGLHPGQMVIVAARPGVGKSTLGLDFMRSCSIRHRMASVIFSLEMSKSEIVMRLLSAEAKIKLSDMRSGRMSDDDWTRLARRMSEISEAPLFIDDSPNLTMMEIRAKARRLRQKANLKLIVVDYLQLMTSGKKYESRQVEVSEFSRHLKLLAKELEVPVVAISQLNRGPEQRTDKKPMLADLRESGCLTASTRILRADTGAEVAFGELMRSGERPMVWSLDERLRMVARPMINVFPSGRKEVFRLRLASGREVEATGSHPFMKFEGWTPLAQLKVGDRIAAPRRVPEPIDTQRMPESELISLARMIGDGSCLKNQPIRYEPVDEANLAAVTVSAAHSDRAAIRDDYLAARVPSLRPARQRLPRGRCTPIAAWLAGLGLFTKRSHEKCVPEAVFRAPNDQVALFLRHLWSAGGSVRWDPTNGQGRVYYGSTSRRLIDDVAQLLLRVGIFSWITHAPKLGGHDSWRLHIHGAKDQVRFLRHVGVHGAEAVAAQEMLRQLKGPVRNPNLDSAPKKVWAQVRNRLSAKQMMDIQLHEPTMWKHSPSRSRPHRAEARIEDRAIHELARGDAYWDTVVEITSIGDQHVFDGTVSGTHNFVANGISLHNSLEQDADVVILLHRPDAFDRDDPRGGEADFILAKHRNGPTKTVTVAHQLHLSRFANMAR
# Protein RecA = molecular target: T3, Protein RecA (Mycobacterium tuberculosis, UniProt P9WHJ3); experiment: Fluorescence Cell-Free Homogeneous Dose Retest to Identify Inhibitors of RecA-Intein Splicing Activity. [Related pubchem assays (depositor defined):AID2097, AID2223, AID489010, AID492950]; type: functional
# T3 sequence (P9WHJ3 whole entry): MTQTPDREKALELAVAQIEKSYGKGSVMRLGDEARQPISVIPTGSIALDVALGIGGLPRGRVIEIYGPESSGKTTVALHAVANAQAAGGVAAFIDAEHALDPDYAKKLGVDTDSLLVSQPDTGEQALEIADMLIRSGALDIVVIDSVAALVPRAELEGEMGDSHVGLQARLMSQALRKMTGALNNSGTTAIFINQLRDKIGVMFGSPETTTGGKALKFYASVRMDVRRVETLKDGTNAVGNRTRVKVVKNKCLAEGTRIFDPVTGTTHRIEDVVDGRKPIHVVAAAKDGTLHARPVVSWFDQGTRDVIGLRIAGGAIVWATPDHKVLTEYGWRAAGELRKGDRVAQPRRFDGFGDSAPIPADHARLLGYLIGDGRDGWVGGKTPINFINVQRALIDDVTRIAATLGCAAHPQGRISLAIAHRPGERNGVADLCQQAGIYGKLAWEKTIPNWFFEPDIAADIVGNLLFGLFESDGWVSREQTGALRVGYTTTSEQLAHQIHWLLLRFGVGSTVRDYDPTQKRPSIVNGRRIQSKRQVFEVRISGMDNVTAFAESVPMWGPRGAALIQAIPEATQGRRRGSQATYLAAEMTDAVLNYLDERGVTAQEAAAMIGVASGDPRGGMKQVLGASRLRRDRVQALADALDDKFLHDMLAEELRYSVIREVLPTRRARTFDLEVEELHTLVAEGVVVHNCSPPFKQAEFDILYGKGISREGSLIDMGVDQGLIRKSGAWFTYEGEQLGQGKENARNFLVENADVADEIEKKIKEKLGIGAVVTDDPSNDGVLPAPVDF
# Cytochrome P450 3A4 = Cytochrome P450 3A4 (Homo sapiens, UniProt P08684);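 further: CYP3A4 tested as one member of a cytochrome P450 panel screen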
# Sequence of Cytochrome P450 3A4 (P08684 whole entry): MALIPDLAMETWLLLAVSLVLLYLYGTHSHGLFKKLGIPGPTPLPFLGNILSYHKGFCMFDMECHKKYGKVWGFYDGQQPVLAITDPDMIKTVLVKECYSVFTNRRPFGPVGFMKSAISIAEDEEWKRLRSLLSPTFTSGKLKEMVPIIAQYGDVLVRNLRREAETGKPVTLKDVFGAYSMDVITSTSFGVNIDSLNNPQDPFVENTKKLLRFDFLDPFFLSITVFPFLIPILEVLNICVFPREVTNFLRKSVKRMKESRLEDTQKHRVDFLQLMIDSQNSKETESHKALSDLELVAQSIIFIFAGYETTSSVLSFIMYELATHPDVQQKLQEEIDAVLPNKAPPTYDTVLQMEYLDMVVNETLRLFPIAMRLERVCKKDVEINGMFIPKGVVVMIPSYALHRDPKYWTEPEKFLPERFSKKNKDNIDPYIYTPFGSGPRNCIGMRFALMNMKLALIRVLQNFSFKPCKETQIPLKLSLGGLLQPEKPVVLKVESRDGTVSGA
# Cytochrome P450 1A2 = molecular target: T4, Cytochrome P450 1A2 (Homo sapiens, UniProt P05177);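 further: PubChem cytochrome P450 panel assay, CYP1A2 panel member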
# T4 sequence (P05177 whole entry): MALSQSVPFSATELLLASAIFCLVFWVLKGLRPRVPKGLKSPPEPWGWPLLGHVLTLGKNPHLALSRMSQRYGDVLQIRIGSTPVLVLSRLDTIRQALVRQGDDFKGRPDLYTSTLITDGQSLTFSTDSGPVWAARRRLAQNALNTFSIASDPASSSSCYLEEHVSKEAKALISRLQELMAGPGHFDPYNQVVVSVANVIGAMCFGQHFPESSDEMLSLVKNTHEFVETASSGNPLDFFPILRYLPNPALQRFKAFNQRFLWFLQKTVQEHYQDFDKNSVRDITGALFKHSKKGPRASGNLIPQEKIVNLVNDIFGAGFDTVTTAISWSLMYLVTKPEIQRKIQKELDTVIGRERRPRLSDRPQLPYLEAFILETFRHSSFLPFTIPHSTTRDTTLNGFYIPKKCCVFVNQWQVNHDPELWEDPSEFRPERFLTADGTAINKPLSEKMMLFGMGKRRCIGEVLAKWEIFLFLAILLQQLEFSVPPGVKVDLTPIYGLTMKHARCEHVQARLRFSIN
# Cytochrome P450 2C9 = Cytochrome P450 2C9 (Homo sapiens, UniProt P11712)
# Sequence of Cytochrome P450 2C9 (P11712 whole entry): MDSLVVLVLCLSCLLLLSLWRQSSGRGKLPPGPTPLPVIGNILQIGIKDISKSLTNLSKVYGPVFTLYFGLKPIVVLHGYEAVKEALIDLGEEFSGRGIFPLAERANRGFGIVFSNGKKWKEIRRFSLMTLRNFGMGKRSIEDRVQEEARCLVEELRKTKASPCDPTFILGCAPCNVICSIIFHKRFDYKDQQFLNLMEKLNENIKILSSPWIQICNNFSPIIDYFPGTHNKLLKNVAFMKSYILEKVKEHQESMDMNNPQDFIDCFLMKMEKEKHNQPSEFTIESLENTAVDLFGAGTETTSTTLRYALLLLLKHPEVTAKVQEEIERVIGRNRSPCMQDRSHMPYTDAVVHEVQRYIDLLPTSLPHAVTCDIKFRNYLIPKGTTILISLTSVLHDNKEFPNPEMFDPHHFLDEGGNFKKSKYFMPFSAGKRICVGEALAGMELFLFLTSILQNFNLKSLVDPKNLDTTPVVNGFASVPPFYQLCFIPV
# INS1 = experiment: beta cell apoptosis inhibitors, cytokine rescue, dose response, luminescence, retest (AID 449756); type: functional, cell-based; conditions: Rattus norvegicus;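 further: cell death triggered by IL-1 beta plus TNF-alpha plus IFN-gamma mixture; protective hits raise ATP signal compared with cytokine alone wells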
# Streptococcus = experiment: Group A Streptococcus viability loss, dose response, counter-screen for streptokinase expression inhibitor project, luminescence, BacTiterGlo (AID 1915); type: functional, organism-based;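 further: potency for reduction of bacterial viability or growth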
# [4] = test system: Streptococcus sp. 'group A'; experiment: growth inhibition of control SK(-) GAS strain, dose response, counter-screen for streptokinase expression inhibitor project, luminescence, kanamycin, BacTiterGlo, confirmation (AID 1900); type: functional, organism-based
# Cytochrome P450 2C19 = Cytochrome P450 2C19 (Homo sapiens, UniProt P33261); experiment: Cytochrome panel assay with activity outcomes. Panel member name: p450-cyp2c19 Compounds with AC50 equal or less than 10 uM are considered active; type: functional; conditions: read-out: AC50
# Sequence of Cytochrome P450 2C19 (P33261 whole entry): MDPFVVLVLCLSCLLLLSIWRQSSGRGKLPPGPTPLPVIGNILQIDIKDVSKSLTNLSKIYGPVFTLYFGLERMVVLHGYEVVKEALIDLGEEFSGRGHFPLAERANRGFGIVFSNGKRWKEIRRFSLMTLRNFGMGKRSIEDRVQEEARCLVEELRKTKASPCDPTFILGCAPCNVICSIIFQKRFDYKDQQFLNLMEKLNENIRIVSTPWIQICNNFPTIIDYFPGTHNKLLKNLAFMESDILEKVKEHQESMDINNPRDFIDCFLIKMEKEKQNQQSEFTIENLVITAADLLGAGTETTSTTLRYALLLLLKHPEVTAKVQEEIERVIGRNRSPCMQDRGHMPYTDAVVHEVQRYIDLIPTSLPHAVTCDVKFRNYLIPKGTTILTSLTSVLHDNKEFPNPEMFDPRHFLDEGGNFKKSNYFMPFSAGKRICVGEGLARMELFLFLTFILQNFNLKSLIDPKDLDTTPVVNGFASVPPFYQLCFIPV
# [5] = Luminescence Cell-Based Dose Response HTS to Identify Activators of Luciferase Translation or Activity in H4 […] Cells. [Related pubchem assays: 1829 (Project Summary), 1814 (Primary HTS)]; type: functional
# [6] = inhibitors of firefly luciferase expression or activity, dose response, H4 neuroglioma cells, luminescence (AID 1990); type: functional, cell-based
# [7] = Luminescence Cell-Based Dose Response HTS to Identify Inhibitors of 5'UTR Stem-Loop Driven Prion Protein mRNA Translation in H4 Neuroglioblastoma Cells. [Related pubchem assays: 1827 (Project Summary), 1813 (Primary HTS)]; type: functional
# [8] = inhibitors of SNCA 5'UTR-driven reporter translation, confirmation, H4 neuroglioma cells, luminescence (AID 1988); type: functional, cell-based
# [9] = inhibitors of intracellular T. cruzi replication, confirmation, NIH3T3 host cells, beta-gal luminescence (AID 2044); type: functional, cell-based;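 further: intracellular parasites grown in NIH/3T3 mouse fibroblasts as host cells; luminescent beta-galactosidase reporter signal from transgenic T. cruzi replicating inside host cells; inhibitors lower the luminescence signal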
# [10] = cytotoxicity toward NIH3T3 fibroblasts, dose response, counter-screen, cell-based, ATP luminescence, mouse fibroblasts (AID 2010); type: functional;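 further: cells exposed to compound for about 90 hours before reading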
structure (smiles),measurement,setting,value
Cc1nnc(NC(=O)C2CCCN(c3ncccn3)C2)s1 (centres undefined),IC50,[1],> 47.1 µM (inactive)
same,EC50,[2],> 53 µM (inactive)
O=C1CC(NC(=O)C(F)(F)F)=NN1c1ccccc1,AC50,[3],6.86 µM (active)
same,EC50,Protein RecA,5.51 µM (active)
COc1cc(C=C(c2nc3ccccc3s2)c2nc3ccccc3s2)ccc1O,AC50,[3],> 380 µM (inactive)
same,EC50,Protein RecA,5.08 µM (active)
COc1ccc(N2CCN(C(=O)CSc3nnc4c5cc(C)ccc5n(C)c4n3)CC2)cc1,AC50,Cytochrome P450 3A4,1.12 µM (inconclusive)
same,AC50,Cytochrome P450 1A2,5.62 µM (inconclusive)
same,AC50,Cytochrome P450 2C9,2.51 µM (inconclusive)
Cc1nnc(NC(=O)c2oc3c(ccc4ccccc43)c2C)s1,AC50,Cytochrome P450 3A4,12.6 µM (inconclusive)
same,AC50,Cytochrome P450 2C9,17.8 µM (inconclusive)
Cc1ccc(SCc2n[nH]c3c2C(c2ccco2)C(C#N)=C(N)O3)cc1 (centres undefined),AC50,[3],< 0.018 µM (active)
same,EC50,Protein RecA,6.19 µM (active)
Cc1ccc(N2C(=O)c3sc4nnc(C)c(=O)n4c3C2=O)cc1,IC50,[1],> 47.1 µM (inactive)
same,EC50,[2],> 53 µM (inactive)
O=C([O-])c1cc(-c2ccccc2)cc(-c2ccccc2)[n+]1Cc1ccccc1,AC50,INS1,1.96 µM (active)
Cc1ccc(OCCOC(=O)Cn2nc(C)c([N+](=O)[O-])c2C)cc1,IC50,[1],> 47.1 µM (inactive)
same,EC50,[2],> 53 µM (inactive)
N#C/C(=C(/O)Cc1cccc2ccccc12)c1nc2ccccc2s1,IC50,[1],2.49 µM (active)
same,EC50,[2],3.14 µM (active)
same,EC50,Streptococcus,3.17 µM (active)
same,EC50,[4],2.91 µM (active)
COc1ccccc1CC(=O)O/N=C(\N)c1cccc([N+](=O)[O-])c1,AC50,Cytochrome P450 2C19,20 µM (inconclusive)
same,AC50,Cytochrome P450 3A4,31.6 µM (inconclusive)
same,AC50,Cytochrome P450 1A2,25.1 µM (inconclusive)
same,AC50,Cytochrome P450 2C9,22.4 µM (inconclusive)
Cc1c2cnn(CC(=O)NC3CCCC3)c(=O)c2c(C)n1Cc1ccccc1,EC50,[5],51.2 µM (active)
same,IC50,[1],> 47.1 µM (inactive)
same,EC50,[2],> 53 µM (inactive)
Cc1ccc(OC(=O)c2ccc([N+](=O)[O-])cc2Cl)cn1,AC50,[3],11.2 µM (active)
same,EC50,Protein RecA,4.92 µM (active)
COc1ccc(-n2ncc(C(C)NS(=O)(=O)c3cc(C)sc3C)c2C)cc1 (centres undefined),IC50,[1],> 47.1 µM (inactive)
same,EC50,[2],> 53 µM (inactive)
Cc1cccc(C)c1OCC(=O)Nc1oc(-c2ccccc2)c(-c2ccccc2)c1C#N,IC50,[1],> 47.1 µM (inactive)
same,EC50,[2],> 53 µM (inactive)
COc1ccc(NC(=O)Nc2ccc3c(c2)OCO3)c(C)c1,IC50,[1],> 47.1 µM (inactive)
same,EC50,[2],> 53 µM (inactive)
Cc1cc(O)c(C2(O)C(=O)Nc3cc(Br)ccc32)cc1C (centres undefined),IC50,[1],> 47.1 µM (inactive)
same,EC50,[2],> 53 µM (inactive)
CC(=O)N1C(=O)C2(C(C#N)=C(N)Oc3c2c(C)nn3-c2ccccc2)c2ccccc21 (centres undefined),AC50,[3],4.34 µM (active)
same,EC50,Protein RecA,2.28 µM (active)
O=C(NC(=S)NCCc1ccccn1)c1ccco1,IC50,[1],> 47.1 µM (inactive)
same,EC50,[2],> 53 µM (inactive)
Cn1c(C(=O)NCCc2ccccc2)cc(=O)n(C)c1=O,IC50,[1],> 47.1 µM (inactive)
same,EC50,[2],> 53 µM (inactive)
N=c1sc2ccccc2n1CC[S-].c1ccc2c(c1)sc1[n+]2CCS1,AC50,Cytochrome P450 3A4,3.16 µM (inconclusive)
same,AC50,Cytochrome P450 2C9,1.58 µM (inconclusive)
N=c1c2c(ncn1CCCO)Oc1ccc3ccccc3c1C2c1ccccc1 (centres undefined),AC50,INS1,24.4 µM (active)
O=C(CCCN1CCC2(CC1)C(=O)N(Cc1cccc(F)c1)CN2c1ccccc1)c1ccc(F)cc1,AC50,Cytochrome P450 2C19,7.94 µM (inconclusive)
same,AC50,Cytochrome P450 3A4,31.6 µM (inconclusive)
same,AC50,Cytochrome P450 1A2,39.8 µM (inconclusive)
Cc1cc(C)nc(OC(=O)c2ccc(Cl)cc2Cl)n1,EC50,[6],11.4 µM (active)
same,EC50,[7],> 120 µM (not active)
same,AC50,INS1,84.3 µM (active)
same,EC50,[8],10.9 µM (active)
CN(CC1CCCO1)S(=O)(=O)c1ccc(C(=O)Nc2nc(-c3ccccn3)cs2)cc1 (centres undefined),AC50,INS1,2.42 µM (active)
Cc1[nH]c2c(ccc3ccccc32)c1C1C(CCN)C1(C)C (centres undefined),AC50,INS1,15.1 µM (active)
same,EC50,[9],2.56 µM (active)
same,EC50,[10],13.2 µM (active)
